Consider five molecules from patent US11207419B2, “Cadherin-17 specific antibodies and cytotoxic cells for cancer treatment” (ARBELE LIMITED, priority 2016, dated 2021).

The subject of one experiment is MHCC97-L (97L) cells. Briefly: In vitro cell proliferation MTT assay, 97L cells. The format is cell-based, human. Particulars: cultured 97L cells; for growth inhibition: treatment for 2 days, MTT. As to the method: (§1) A pre-determined number of 97L and PLC cells was seeded onto 96-well culture plates for 1 day. 150 ug/ml mouse IgG (Sigma-Aldrich, St Louis, Mo., USA) as a control for Lic5. After treatment, the proliferation of treated cells was measured using Cell Proliferation Kit I (Roche, Indianapolis, Ind., USA) and as described. In brief, MTT reagent was incubated with the treated cells for 4 hours. Colorimetric signals were then measured after addition of 10% SDS. Independent cell proliferation MTT assays were performed at least twice for result confirmation.
(§2) Before treating orthotopic tumor-bearing mice with the purified Lic5, the anti-tumor effect of Lic5 alone or combined with cisplatin or epirubicin in cultured HCC cell lines in vitro was examined using cell proliferation MTT assay (FIG. 31(A)).

A further experiment deals with PLC/PRF/5 (PLC) cells. Briefly: In vitro cell proliferation MTT assay, PLC cells. The format is cell-based, human. Particulars: for growth inhibition: cultured PLC cells, treatment for 2 days, MTT. As to the method:
as §1, §2

For experiment [1], the system named is luciferase-labelled 97L orthotopic liver tumors. Briefly: Orthotopic tumor xenograft model, tumor growth by live imaging. In kind it is in vivo, nude mice. Particulars: net photon count relative to IgG control 3 weeks after treatment; 6 mg/kg Lic5, 1 mg/kg drug, intraperitoneal 3 times/week for 3 weeks.
The subject of experiment [2] is 97L orthotopic liver tumors. As to the kind of experiment: Animal survival study, orthotopic liver tumors. In kind it is in vivo, nude mice. As to conditions: for animal survival rate: 8 mg/kg Lic5, 1 mg/kg epirubicin, intraperitoneal 3 times/week for 3 weeks, monitored till 6 weeks after treatment. The protocol: Orthotopic liver tumors were established as above using 97L cells. Orthotopic tumor-bearing mice received the following treatments intraperitoneally 3 times/week for 3 weeks (11-15 mice in each group): (1) 8 mg/kg Lic5; (2) 1 mg/kg cisplatin; (3) 1 mg/kg epirubicin; (4) combined treatment of Lic5 and cisplatin; (5) combined treatment of Lic5 and epirubicin; (6) 8 mg/kg mouse IgG as Lic5 control. Animal survival was continuously monitored till 6 weeks after treatment.
Statistical analyses were performed using SPSS version 19 (SPSS Inc., Chicago, Ill., USA). Data presented in bar chart are expressed as mean ±SD/SEM. Student's t-test was used to calculate the significance of the difference between treatment groups and control group in both cell proliferation MTT assay and animal tumor xenograft experiments. Kaplan-Meier method was employed for survival analyses, while the differences in survival were calculated using log-rank test. A p-value of less than 0.05 was considered statistically significant.

A further experiment addresses T1, GPC3 (Homo sapiens, UniProt P51654).
T1 construct: host or cells: HCC patients
Particulars: phase I study; cited from earlier work.

For experiment [3], the system named is Oum1 human gastric cancer cells. Briefly: Internalization by confocal microscopy. The format is cell-based. Particulars: Lic5-FITC, over 30 mins at 37° C. As to the method: FIG. 18 presents photographs showing the internalization of Lic5 into human gastric cancer cells as candidate for antibody drug conjugate; (a) photographs showing the staining of DAPI (blue) and Lic5-FITC (green) at indicated times; (b) photographs showing the merged staining of DAPI (blue) and Lic5-FITC (green) at indicated times; Lic5-FITC (green) internalization in Oum1 human gastric cancer cells over 30 mins at 37° C. was determined by confocal microscopy; nucleus was stained with DAPI.
In another aspect, the internalization of Lic5 into human gastric cancer cells is indicative of a candidate for antibody drug conjugate as shown in FIG. 18; (a) photographs showing the staining of DAPI (blue) and Lic5-FITC (green) at indicated times; (b) photographs showing the merged staining of DAPI (blue) and Lic5-FITC (green) at indicated times; Lic5-FITC (green) internalization in Oum1 human gastric cancer cells over 30 mins at 37° C. was determined by confocal microscopy; nucleus was stained with DAPI.

In a further experiment the target is T2, CDH17 (Homo sapiens, UniProt Q12864).
T2 construct: A single band of about 120 kDa corresponding to the apparent molecular weight of CDH17 was detected in CDH17-expressing 97L cells; endogenous in cells; host or cells: 97L cell lysate (western blot); paraffin-embedded human HCC tissue (immunohistochemistry)
As to the kind of experiment: Immunoreactivity by western blot and immunohistochemistry. In kind it is binding. As to conditions: western blot on 97L cell lysate, immunohistochemistry on human HCC tissue. The protocol:
An in-house hybridoma cell line secreting Lic5 was generated as described. Hybridoma cells were maintained in DMEM supplemented with 10% FBS and 100 units/ml penicillin and streptomycin. To collect Lic5, hybridoma cells were cultured in serum-free hybridoma-SFM (Life Technologies) for 6 days. The cultured supernatant was collected and purified using Protein G column (Life Technologies). The concentration of the purified Lic5 was estimated using RC DC Protein Assay (Bio-Rad, Hercules, Calif., USA). The purity of Lic5 was assessed by sodium dodecyl sulfate-polyacrylamide gel electrophoresis (SDS-PAGE) under reducing condition, followed by Coomassie Blue staining. Immunoreactivity and specificity of Lic5 were confirmed by western blot using 97L cell lysate and by immunohistochemistry using paraffin-embedded human HCC tissue. […]
Immunohistochemistry was performed on paraffin-embedded orthotopic tumor xenografts and human HCC specimen as described. […] Signals were detected using EnVision+System-HRP Labelled Polymer Anti-mouse (Dako, Carpinteria, Calif., USA) and visualized using Liquid DAB+Substrate Chromogen System (Dako). […]
A single band of about 120 kDa corresponding to the apparent molecular weight of CDH17 was detected in CDH17-expressing 97L cells when Lic5 was used as a primary antibody for western blot (FIG. 30(B)). […]

Experiment [4] concerns tumor cells of HCC and GC. Briefly: Binding of mAbs to tumor cells. In kind it is cell-based. The source says: Tumor antigens derived from clinical samples were selected for the antibodies with specificity directed against the tumor-restricted CDH17 epitopes. […] By lowering and/or varying the antibody affinity (through computational modeling), CDH17-CAR-T cells will have enhanced differential binding to the tumor cell surface.

Where [5] appears, read: 2 days, compared to mouse IgG-treated cells.

Turning to `N.N.[Cl][Pt][Cl]` [cisplatin], the growth inhibition with MHCC97-L (97L) cells was determined as 31.6%; in the experiment on PLC/PRF/5 (PLC) cells, 37.6%. This molecule came in with a xenograft growth inhibition in experiment [1] of 48.6%. Moreover, the “difference in survival compared to control group” value in experiment [2] (log-rank test versus mouse IgG control) is given as “did not reach any statistically significant values”.
On to `COc1cccc2c1C(=O)c1c(O)c3c(c(O)c1C2=O)C[C@@](O)(C(=O)CO)C[C@@H]3O[C@H]1C[C@H](N)[C@@H](O)[C@H](C)O1` [epirubicin], for which the values for the growth inhibition in the experiment with MHCC97-L (97L) cells and in the experiment with PLC/PRF/5 (PLC) cells were 21.9% and 8.1%, respectively. This molecule yielded a xenograft growth inhibition in experiment [1] of 37.9%. In addition, in experiment [2], the animal survival rate stood at 25%.
For GC33: anti-GPC3 mAb developed by Chugai, the clinical response result with GPC3 is “no partial or complete response”.

B1: Lic5: in-house mouse monoclonal antibody against CDH17, from hybridoma; VL SEQ ID NO. 29, VH SEQ ID NO. 30 (antibody, V domains shown)
VH: EVQLEESGGGLVKPGGSLKLPCAASGSSFSDFYMYWVRQTPEKRLEWVASISFDGTYTYYTDRVKGRFTISRDNAKNNLYLQMSSLKSEDTAMYYCARDRPAWFPYWGQGTLVTVSAA
VL: DIVLTQTTLSLNVSLGDQASISCRSSQSIVHSNGNTYLEWYLQRPGQSPKLLIYKVSNRFSGVPDRFSGSGSGTDFTLKISRVEAEDLGVYYCFQGSHVPLTFGAGTKLELKRA
notes: in-house mouse monoclonal antibody against CDH17, from hybridoma; 30
Consider B1, for which the “growth of cultured cells, single treatment” value with MHCC97-L (97L) cells (setting [5]) and in the experiment with PLC/PRF/5 (PLC) cells (setting [5]) was “inhibited the growth” in each case. Moreover, in experiment [2], the animal survival rate was found to be 63.6%. Further, the internalization into cells entry in experiment [3] is given as “internalization”. Besides, the “immunoreactivity against CDH17” value with CDH17 is recorded as “high immunoreactivity against CDH17”. In experiment [4], the “binding to tumor cells” value was “bind tumor cells of HCC and GC only”.

B2: Lic3: mouse monoclonal antibody against CDH17, produced using recombinant ectodomain 1-2 of CDH17 as immunogen (antibody, V domains shown)
VH: EVQLVESGGGLVKPGGSLKLSCAASGFSFSDYYMYWVRQAPEKRLEWVASISFDGTYTYYTDRVKGRFTISRDNAKNNLYLQMSSLKSEDTAMYYCARDRPAWFPYWGQGTLVTVSA
VL: DVLMTQIPLSLTVSLGDQASISCRSSQSIVHSNGNTYLEWYLQRPGQSPKLLIYKVSNRFSGVPDRFSGSGSGTDFTLKISRVEAEDLGVYYCFQGSHVPLTFGAGTKLELK
modifications: Lic3 VH; Lic3 VL
notes: mouse monoclonal antibody against CDH17, produced using recombinant ectodomain 1-2 of CDH17 as immunogen
For B2, the “binding to tumor cells” value in experiment [4] is “bind tumor cells of HCC and GC only”.
